In general, pIC50 refers to the IC50 on a negative log10 scale, so that one unit is a factor of ten. High values mean a low IC50, low ones a high IC50.

pIC50: −log10 of the molar value.

The target in this test is T1, MAGL (Homo sapiens, UniProt Q99685).
T1 sequence (Q99685 1-303): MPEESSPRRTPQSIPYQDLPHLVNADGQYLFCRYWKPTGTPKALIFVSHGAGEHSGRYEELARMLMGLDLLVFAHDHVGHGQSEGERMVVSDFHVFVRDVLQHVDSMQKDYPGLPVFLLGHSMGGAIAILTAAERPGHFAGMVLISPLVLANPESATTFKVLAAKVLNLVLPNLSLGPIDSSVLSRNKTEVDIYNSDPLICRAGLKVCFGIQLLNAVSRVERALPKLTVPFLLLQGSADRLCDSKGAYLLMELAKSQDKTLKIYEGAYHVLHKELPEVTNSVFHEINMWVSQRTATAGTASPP
As to the kind of experiment: 2-AG assay: MAGL inhibitory activity by hydrolysis of 2-arachidonoylglycerol to arachidonic acid, followed by mass spectrometry. The format is biochemical. The settings on record: 15 min preincubation, 30 min reaction at RT, 8 μM 2-arachidonoylglycerol.
The compound `CP(C)(=O)c1ccc(CC2CC3(C2)CN(C(=O)N2CC4(CCC(=O)N4)C2)C3)c(F)c1` [Example 336, 2-[6-(4-dimethylphosphoryl-2-fluoro-benzyl)-2-azaspiro[3.3]heptane-2-carbonyl]-2,5-diazaspiro[3.4]octan-6-one] showed a pIC50 of 6.84. In turn, `Cn1nc(C(F)(F)F)cc1CN1CCC2(CC1)CN(C(=O)N1CC3(CCC(=O)N3)C1)C2` [Example 337, 2-[7-[[2-methyl-5-(trifluoromethyl)pyrazol-3-yl]methyl]-2,7-diazaspiro[3.5]nonane-2-carbonyl]-2,5-diazaspiro[3.4]octan-6-one] showed a pIC50 of 6.80. For the compound `O=C1CCC2(CN(C(=O)N3CC4(CCN(Cc5cc(C(F)(F)F)on5)CC4)C3)C2)N1` [Example 338, 2-[7-[[5-(trifluoromethyl)isoxazol-3-yl]methyl]-2,7-diazaspiro[3.5]nonane-2-carbonyl]-2,5-diazaspiro[3.4]octan-6-one], the pIC50 is 6.75. The result for `CP(C)(=O)c1cc(F)cc(CC2CC3(C2)CN(C(=O)N2CC4(CCC(=O)N4)C2)C3)c1` [Example 339, 2-[6-(3-dimethylphosphoryl-5-fluoro-benzyl)-2-azaspiro[3.3]heptane-2-carbonyl]-2,5-diazaspiro[3.4]octan-6-one] reads 6.67. Take `O=C1CCC2(CN(C(=O)N3CC4(CN(Cc5nc(C6CC6)ns5)C4)C3)C2)N1` [Example 340, 2-[6-[(3-cyclopropyl-1,2,4-thiadiazol-5-yl)methyl]-2,6-diazaspiro[3.4]heptane-2-carbonyl]-2,5-diazaspiro[3.4]octan-6-one]: the pIC50 is 6.37. As to `Cc1sc(CN2CC3(C2)CN(C(=O)N2CC4(CCC(=O)N4)C2)C3)nc1C(F)(F)F` [Example 341, 2-[6-[[5-methyl-4-(trifluoromethyl)thiazol-2-yl]methyl]-2,6-diazaspiro[3.3]heptane-2-carbonyl]-2,5-diazaspiro[3.4]octan-6-one], the pIC50 is 6.14. `O=C1CCC2(CN(C(=O)N3CC4(CN(Cc5nnc(C(F)(F)F)s5)C4)C3)C2)N1` [Example 342, 2-[6-[[5-(trifluoromethyl)-1,3,4-thiadiazol-2-yl]methyl]-2,6-diazaspiro[3.3]heptane-2-carbonyl]-2,5-diazaspiro[3.4]octan-6-one] had a pIC50 of 5.80. On to `Cc1nc(C(F)(F)F)c(CN2CC3(C2)CN(C(=O)N2CC4(CCC(=O)N4)C2)C3)s1` [Example 343, 2-[6-[[2-methyl-4-(trifluoromethyl)thiazol-5-yl]methyl]-2,6-diazaspiro[3.4]heptane-2-carbonyl]-2,5-diazaspiro[3.4]octan-6-one], for which the pIC50 was 5.74.

As to `Cn1cc(OC2CC3(C2)CN(C(=O)N2CC4(CCC(=O)N4)C2)C3)cn1` [Example 344, 2-[6-(1-methylpyrazol-4-yl)oxy-2-azaspiro[3.3]heptane-2-carbonyl]-2,5-diazaspiro[3.4]octan-6-one], the pIC50 was 5.61.

In the case of `O=C1CCC2(CN(C(=O)N3CC4(CN(Cc5snnc5C5CC5)C4)C3)C2)N1` [Example 345, 2-[6-[(4-cyclopropylthiadiazol-5-yl)methyl]-2,6-diazaspiro[3.3]heptane-2-carbonyl]-2,5-diazaspiro[3.4]octan-6-one], the pIC50 was 5.48. For the compound `Cc1cc(C(F)F)n(CC2CC3(C2)CN(C(=O)N2CC4(CCC(=O)N4)C2)C3)n1` [Example 346, 2-[6-[[5-(difluoromethyl)-3-methyl-pyrazol-1-yl]methyl]-2-azaspiro[3.3]heptane-2-carbonyl]-2,5-diazaspiro[3.4]octan-6-one], the pIC50 was 7.54.

In turn, `Cc1cc(C(F)F)nn1CC1CC2(C1)CN(C(=O)N1CC3(CCC(=O)N3)C1)C2` [Example 347, 2-[6-[[3-(difluoromethyl)-5-methyl-pyrazol-1-yl]methyl]-2-azaspiro[3.3]heptane-2-carbonyl]-2,5-diazaspiro[3.4]octan-6-one] gave a pIC50 of 8.09. For the compound `O=C1CCC2(CN(C(=O)N3CC4(CCN(Cc5ncc(C(F)F)s5)CC4)C3)C2)N1` [Example 348, 2-[7-[[5-(difluoromethyl)thiazol-2-yl]methyl]-2,7-diazaspiro[3.5]nonane-2-carbonyl]-2,5-diazaspiro[3.4]octan-6-one], the negative-log IC50 (pIC50) is 7.04. In the case of `O=C1CCC2(CN(C(=O)N3CC4(CC(Cc5nsc(C(F)(F)F)n5)C4)C3)C2)N1` [Example 349, 2-[6-[[5-(trifluoromethyl)-1,2,4-thiadiazol-3-yl]methyl]-2-azaspiro[3.3]heptane-2-carbonyl]-2,5-diazaspiro[3.4]octan-6-one], the pIC50 was 7.64.

Turning to `O=C1CCC2(CN(C(=O)N3CC4(CCN(Cc5cc(C(F)(F)F)[nH]n5)CC4)C3)C2)N1` [Example 350, 2-[7-[[5-(trifluoromethyl)-1H-pyrazol-3-yl]methyl]-2,7-diazaspiro[3.5]nonane-2-carbonyl]-2,5-diazaspiro[3.4]octan-6-one], the pIC50 is 6.78. The result for `O=C1NC2(CO1)CN(C(=O)N1CC3(CC(Cc4nc(C(F)(F)F)cs4)C3)C1)C2` [Example 351, 2-[6-[[4-(trifluoromethyl)thiazol-2-yl]methyl]-2-azaspiro[3.3]heptane-2-carbonyl]-7-oxa-2,5-diazaspiro[3.4]octan-6-one] reads 9.43; that for `Cn1ncc(CC2CC3(C2)CN(C(=O)N2CC4(COC(=O)N4)C2)C3)c1C(F)(F)F` [Example 352, 2-[6-[[1-methyl-5-(trifluoromethyl)pyrazol-4-yl]methyl]-2-azaspiro[3.3]heptane-2-carbonyl]-7-oxa-2,5-diazaspiro[3.4]octan-6-one], 9.82; that for `N#Cc1ccc(CC2CC3(C2)CN(C(=O)N2CC4(COC(=O)N4)C2)C3)cc1C(F)(F)F` [Example 353], 10.00. As to `O=C1NC2(CO1)CN(C(=O)N1CC3(CC(Cc4ccc(C(F)(F)F)cn4)C3)C1)C2` [Example 354, 2-[6-[[5-(trifluoromethyl)-2-pyridyl]methyl]-2-azaspiro[3.3]heptane-2-carbonyl]-7-oxa-2,5-diazaspiro[3.4]octan-6-one], the pIC50 is 9.55.

Regarding `O=C1NC2(CO1)CN(C(=O)N1CC3(CC(Cc4ccc(OC(F)(F)F)nc4)C3)C1)C2` [Example 355, 2-[6-[[6-(trifluoromethoxy)-3-pyridyl]methyl]-2-azaspiro[3.3]heptane-2-carbonyl]-7-oxa-2,5-diazaspiro[3.4]octan-6-one], the pIC50 was 9.72.

`N=[S@](=O)(c1cccc(CC2CC3(C2)CN(C(=O)N2CC4(COC(=O)N4)C2)C3)c1)C(F)(F)F` [Example 356, 2-[6-[3-(trifluoromethylsulfoni-midoyl)benzyl]-2-azaspiro[3.3]heptane-2-carbonyl]-7-oxa-2,5-diazaspiro[3.4]octan-6-one] showed a pIC50 of 9.70. The result for `N=[S@@](=O)(c1cccc(CC2CC3(C2)CN(C(=O)N2CC4(COC(=O)N4)C2)C3)c1)C(F)(F)F` [Example 357, 2-[6-[3-(trifluoromethylsulfoni-midoyl)benzyl]-2-azaspiro[3.3]heptane-2-carbonyl]-7-oxa-2,5-diazaspiro[3.4]octan-6-one] reads 9.82; that for `N=[S@@](=O)(c1ccc(CC2CC3(C2)CN(C(=O)N2CC4(COC(=O)N4)C2)C3)cc1)C(F)(F)F` [Example 358, 2-[6-[4-(trifluoromethylsulfoni-midoyl)benzyl]-2-azaspiro[3.3]heptane-2-carbonyl]-7-oxa-2,5-diazaspiro[3.4]octan-6-one], 9.59; that for `N=[S@](=O)(c1ccc(CC2CC3(C2)CN(C(=O)N2CC4(COC(=O)N4)C2)C3)cc1)C(F)(F)F` [Example 359], 9.49.

The compound `O=C1CCC2(CN(C(=O)N3CC4(CC(Cc5cccc(S(=O)(=O)C(F)(F)F)c5)C4)C3)C2)N1` [Example 360, 2-[6-(3-triflylbenzyl)-2-azaspiro[3.3]heptane-2-carbonyl]-2,5-diazaspiro[3.4]octan-6-one] gave a pIC50 of 9.70. Consider `O=C1CCC2(CN(C(=O)N3CC4(CN(Cc5ccc(C(F)(F)F)cc5F)C4)C3)C2)N1` [Example 361, 2-[6-[2-fluoro-4-(trifluoromethyl)benzyl]-2,6-diazaspiro[3.3]heptane-2-carbonyl]-2,5-diazaspiro[3.4]octan-6-one], for which the pIC50 is 8.24. The compound `O=C1COCC2(CN(C(=O)N3CC4(CC(Cn5ncc(C(F)(F)F)n5)C4)C3)C2)N1` [Example 362, 2-[6-[[4-(trifluoromethyl)triazol-2-yl]methyl]-2-azaspiro[3.3]heptane-2-carbonyl]-8-oxa-2,5-diazaspiro[3.5]nonan-6-one] gave a pIC50 of 7.11. On to `O=C1COCC2(CN(C(=O)N3CC4(CC(Cc5nc(C(F)(F)F)ns5)C4)C3)C2)N1` [Example 363, 2-[6-[[3-(trifluoromethyl)-1,2,4-thiadiazol-5-yl]methyl]-2-azaspiro[3.3]heptane-2-carbonyl]-8-oxa-2,5-diazaspiro[3.5]nonan-6-one], for which the pIC50 is 7.26. Consider `Cc1cc(C(F)F)n(CC2CC3(C2)CN(C(=O)N2CC4(COCC(=O)N4)C2)C3)n1` [Example 364, 2-[6-[[5-(difluoromethyl)-3-methyl-pyrazol-1-yl]methyl]-2-azaspiro[3.3]heptane-2-carbonyl]-8-oxa-2,5-diazaspiro[3.5]nonan-6-one], for which the pIC50 was 7.56. As to `O=C1COCC2(CN(C(=O)N3CC4(CC(Cc5cnn(C(F)(F)F)c5)C4)C3)C2)N1` [Example 365, 2-[6-[[1-(trifluoromethyl)pyrazol-4-yl]methyl]-2-azaspiro[3.3]heptane-2-carbonyl]-8-oxa-2,5-diazaspiro[3.5]nonan-6-one], the pIC50 was 7.39. `Cn1ncc(C(F)(F)F)c1CC1CC2(C1)CN(C(=O)N1CC3(COCC(=O)N3)C1)C2` [Example 366, 2-[6-[[2-methyl-4-(trifluoromethyl)pyrazol-3-yl]methyl]-2-azaspiro[3.3]heptane-2-carbonyl]-8-oxa-2,5-diazaspiro[3.5]nonan-6-one] had a pIC50 of 7.65.

The values above are taken from patent publication US20240383904A1, “HETEROCYCLIC COMPOUNDS” (Hoffmann-La Roche Inc., priority 2021, published 2024).
